From article PMC4769301, “Affinity Enhancement by Ligand Clustering Effect Inspired by Peptide Dendrimers−Shank PDZ Proteins Interactions” (PLoS ONE, 2016)
Values joined by “and” are separate entries in the source; they are usually repeats but may differ in a detail not shown here. Equal entries are not always repeated. Where two headings read alike, the source gives them in different places. Numbered stars: 1 amine (or outer) side, 2 acyl side, 3 side chain; on linkers, the order of the positions; unused ones are H or OH. Bridge positions count the residues as written; N and C are the ends. Ends that are not written are not given here. Peptide text beside a SMILES is read from it. I, II: the chains in the order shown. X1 = O=C1CC([*:1])C(=O)N1CCN(CCN1C(=O)CC([*:2])C1=O)CCN1C(=O)CC([*:3])C1=O; X3 = O=C1CC([*:1])C(=O)N1CCOCCOCCOCCN1C(=O)CC([*:2])C1=O; X2 = O=C1CC([*:1])C(=O)N1CCOCCOCCN1C(=O)CC([*:2])C1=O

T1: Shank1 PDZ (Rattus norvegicus, UniProt Q9WV48)
T1 construct: His tag; made in house; host or cells: E. coli BL21
T1 sequence (Q9WV48 653-765): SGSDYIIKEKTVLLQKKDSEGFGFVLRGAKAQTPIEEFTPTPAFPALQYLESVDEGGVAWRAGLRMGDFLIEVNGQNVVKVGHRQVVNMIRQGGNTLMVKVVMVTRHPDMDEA

T2: Shank3 PDZ (Mus musculus, UniProt Q4ACU6)
T2 construct: His tag; made in house; host or cells: E. coli BL21
T2 sequence (Q4ACU6 533-665): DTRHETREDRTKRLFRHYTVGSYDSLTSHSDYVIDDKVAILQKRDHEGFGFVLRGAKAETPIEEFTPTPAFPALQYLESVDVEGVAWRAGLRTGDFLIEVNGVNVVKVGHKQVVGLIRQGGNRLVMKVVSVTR

T3: p1 (monomeric βPIX peptide) (Rattus norvegicus)
T3 chain: CGSSGDPAWDETNL

T4: p2 (dimeric peptide, BM(PEG)2) (also: dimer via Cys-BM(PEG)2 linker)
T4 chain: Ac-CGSSGDPAWDETNL

T5: p3 (trimeric peptide, TMEA) (also: trimer via Cys-TMEA linker)
T5 chain: Ac-CGSSGDPAWDETNL

T6: dimeric peptide BM(PEG)3 (also: dimer via Cys-BM(PEG)3 linker)
T6 chain: Ac-CGSSGDPAWDETNL


What was measured:
Shank1 PDZ [1] = target: T1, Shank1 PDZ; experiment: Isothermal titration calorimetry, Shank1 PDZ; type: binding
Source text: (§1) Gene encoding the Shank1 PDZ (Swiss-Prot accession number Q9WV48.1, residues 653–765) was synthesized by GenScript Inc., and digested by Nde I and Xho I restriction enzymes and ligated into pET28a vector to generate pET28-Shank1 PDZ plasmid (S1A Fig). The plasmid pET.M.3C Shank3 PDZ (Swiss-Prot accession number Q4ACU6.3, residues 533–665) was a gift from Prof. Mingjie Zhang’s group from Division of Life Science, Hong Kong University of Science and Technology. The recombinant plasmid pET28-Shank1 PDZ and pET.M.3C Shank3 PDZ were transformed into E. coli BL21 cells for protein production. Mono-clones were pre-cultured overnight at 37°C, and then cultures were added to new media, shaken at 37 °C until optical density at 600 nm reached 0.6–0.8. Then isopropyl β-D-1-thiogalactopyranoside was added at final concentration 1 mM to induce protein overexpression, the culture was shaken overnight at 16°C.
(§2) Prior to use, lyophilized peptides were dissolved in the storage buffer (50 mM sodium phosphate, 200 mM NaCl, pH 7.4). All the peptides and protein solution were filtered through 0.1 μm membrane, and their concentrations were adjusted according to experiments requirement: except for the binding pair p1 ligand and Shank1 PDZ, the proteins concentration were between 30–40 μM, ligands concentration were between 300–400 μM; and for the binding pair p1 ligand and Shank1 PDZ, the affinity was very low so that protein concentration was adjusted to about 315 μM and p1 ligand concentration was adjusted to about 3.14 mM to get accuracy affinity data. All the solutions were extensively degassed just before titration. Titrations were performed at 25°C by MicroCal VP-ITC (Malvern), and data were analyzed by Origin software (Origin Lab) and fitted to single-binding-site model.

Shank3 PDZ = target: T2, Shank3 PDZ; experiment: Isothermal titration calorimetry, Shank3 PDZ; type: binding
Source text: as §1, §2

Shank1 PDZ [2] = target: T1, Shank1 PDZ; experiment: Native mass spectrometry, Shank1 PDZ; type: binding; conditions: for complexes with higher stoichiometry such as 2:1 or 3:1: native MS, protein/peptide ratio 4:1, protein in excess, within the detection limit of native MS
Method: Prior to the experiment, the protein solution was extensively dialyzed at 4°C against 150mM ammonium acetate. During the dialysis, Shank1 PDZ yielded no precipitate, while Shank3 PDZ was largely precipitated out. Increasing the concentration of ammonium acetate to 200–500 mM couldn’t alleviate precipitation. Lyophilized peptides were also dissolved in the 150 mM ammonium acetate. All the peptides and protein solution were filtered through 0.1 μm membrane, and their concentrations were adjusted according to experiments requirement. The protein and peptide were mixed as the corresponding ratio and incubated at room temperature for 20 minutes.
Positive ion electrospray ionization mass spectra were acquired on a Micromass Q-Tof micro mass spectrometer (Waters), with a nanoESI source using EconoTips. The capillary voltage was adjusted in the range of 1.2–2.2 kV until optimal ion signals were obtained. The cone voltage of the Q-TOF was set at 20 V, and the ion source temperature was set at 40°C.

Shank1 PDZ [3] = target: T1, Shank1 PDZ; experiment: Surface plasmon resonance, immobilized Shank1 PDZ; type: binding; conditions: for kon: pH 7.4, read-out: association rate constant kon; for koff: pH 7.4, read-out: dissociation rate constant koff
Method: Prior to use, lyophilized peptides were dissolved in the storage buffer (50 mM sodium phosphate, 200 mM NaCl, pH 7.4) at high concentration and diluted to required concentration using running buffer (HBS-EP: 0.01 M HEPES pH 7.4, 0.15 M NaCl, 3 mM EDTA, 0.005% v/v Surfactant P20). All the peptides and protein solution were filtered through 0.1 μm membrane, and their concentrations were adjusted according to experiments requirement: for ligand p1, concentration series of 10.8 μM, 21.6 μM, 43.2 μM, 86.5μM, 173μM, 346μM were used; for ligand p2, concentrations series of 10 μM, 20 μM, 40 μM, 80 μM, 160 μM, 320 μM were used; for ligand p3, concentrations series of 2.63 μM, 5.27 μM, 10.5 μM, 21.1 μM, 42.1 μM, 84.3 μM were used. All sample solution and running buffer were extensively degassed just before titration. Shank1 PDZ protein was coupled on CM5 chip using EDC/NHS method.
Running were performed at 25°C on Biacore 3000 (GE), and data were processed by BIAevaluation software and fitted to steady state affinity model and 1:1 Langmuir binding model. 1:1 Langmuir binding model which show kinetics data was analyzed by BIAevaluation software. Steady state affinity model which show affinity data was analyzed by Origin software using the following equation: Req=KACRmax/1+KACn

[4] = target: T3, p1 (monomeric βPIX peptide); experiment: ITC
[5] = target: T4, p2 (dimeric peptide, BM(PEG)2); experiment: ITC
[6] = target: T5, p3 (trimeric peptide, TMEA); experiment: ITC
dimeric peptide BM(PEG)3 = target: T6, dimeric peptide BM(PEG)3; experiment: ITC
[7] = target: T3, p1 (monomeric βPIX peptide); experiment: native MS
[8] = target: T4, p2 (dimeric peptide, BM(PEG)2); experiment: native MS
[9] = target: T5, p3 (trimeric peptide, TMEA); experiment: native MS
[10] = target: T4, p2 (dimeric peptide, BM(PEG)2); experiment: SPR kinetics
[11] = target: T5, p3 (trimeric peptide, TMEA); experiment: SPR kinetics
[12] = target: T3, p1 (monomeric βPIX peptide); experiment: SPR steady state
[13] = target: T4, p2 (dimeric peptide, BM(PEG)2); experiment: SPR steady state
[14] = target: T5, p3 (trimeric peptide, TMEA); experiment: SPR steady state
[15] = target: T4, p2 (dimeric peptide, BM(PEG)2); experiment: ITC (diluted ligand)
[16] = target: T5, p3 (trimeric peptide, TMEA); experiment: ITC (diluted ligand)

Row | Molecule | Kd [4] | Kd [5] | Kd [6] | Kd (Shank1 PDZ [1]) | Kd (Shank3 PDZ) | Kd (Shank1 PDZ [2]) | complexes with higher stoichiometry such as 2:1 or 3:1 (Shank1 PDZ [2]) | kon (Shank1 PDZ [3]) | koff (Shank1 PDZ [3]) | also measured
1 | CC(=O)N[C@@H](CSC1CC(=O)N(CCOCCOCCOCCN2C(=O)CC(SC[C@H](NC(C)=O)C(=O)NCC(=O)N[C@@H](CO)C(=O)N[C@@H](CO)C(=O)NCC(=O)N[C@@H](CC(=O)O)C(=O)N3CCC[C@H]3C(=O)N[C@@H](C)C(=O)N[C@@H](Cc3c[nH]c4ccccc34)C(=O)N[C@@H](CC(=O)O)C(=O)N[C@@H](CCC(=O)O)C(=O)N[C@H](C(=O)N[C@@H](CC(N)=O)C(=O)N[C@@H](CC(C)C)C(=O)O)[C@@H](C)O)C2=O)C1=O)C(=O)NCC(=O)N[C@@H](CO)C(=O)N[C@@H](CO)C(=O)NCC(=O)N[C@@H](CC(=O)O)C(=O)N1CCC[C@H]1C(=O)N[C@@H](C)C(=O)N[C@@H](Cc1c[nH]c2ccccc12)C(=O)N[C@@H](CC(=O)O)C(=O)N[C@@H](CCC(=O)O)C(=O)N[C@H](C(=O)N[C@@H](CC(N)=O)C(=O)N[C@@H](CC(C)C)C(=O)O)[C@@H](C)O (some centres unmarked) [dimeric peptide BM(PEG)3] (I: Ac-CGSSGDPAWDETNL-OH / II: Ac-CGSSGDPAWDETNL-OH; linker I:1-II:1 via X3) | – | – | – | 13.7 ± 0.7 µM | – | – | – | – | – | –
2 | CC(=O)N[C@@H](CSC1CC(=O)N(CCOCCOCCN2C(=O)CC(SC[C@H](NC(C)=O)C(=O)NCC(=O)N[C@@H](CO)C(=O)N[C@@H](CO)C(=O)NCC(=O)N[C@@H](CC(=O)O)C(=O)N3CCC[C@H]3C(=O)N[C@@H](C)C(=O)N[C@@H](Cc3c[nH]c4ccccc34)C(=O)N[C@@H](CC(=O)O)C(=O)N[C@@H](CCC(=O)O)C(=O)N[C@H](C(=O)N[C@@H](CC(N)=O)C(=O)N[C@@H](CC(C)C)C(=O)O)[C@@H](C)O)C2=O)C1=O)C(=O)NCC(=O)N[C@@H](CO)C(=O)N[C@@H](CO)C(=O)NCC(=O)N[C@@H](CC(=O)O)C(=O)N1CCC[C@H]1C(=O)N[C@@H](C)C(=O)N[C@@H](Cc1c[nH]c2ccccc12)C(=O)N[C@@H](CC(=O)O)C(=O)N[C@@H](CCC(=O)O)C(=O)N[C@H](C(=O)N[C@@H](CC(N)=O)C(=O)N[C@@H](CC(C)C)C(=O)O)[C@@H](C)O (some centres unmarked) [p2] (I: Ac-CGSSGDPAWDETNL-OH / II: Ac-CGSSGDPAWDETNL-OH; linker I:1-II:1 via X2) | – | – | – | 16.6 µM and 18 µM | 5.9 ± 0.4 µM | ~5.3 µM | not observed | 65200 M⁻¹ s⁻¹ | 1.12 s⁻¹ | –
3 | GSGSGDPAWDETNL-OH [p1] | – | – | – | – | – | – | – | – | – | Kd (Shank1 PDZ [1]; MicroCal VP-ITC, 25°C, 50 mM sodium phosphate, 200 mM NaCl, pH 7.4, single-binding-site model, [p1] = 4 mM/[Shank1 PDZ] = 400 μM, [p2] = 326 μM/43 μM, [p3] = 354 μM/35 μM (Fig 3A), read-out: dissociation constant Kd (ITC)): 41 ± 1 µM; Kd (Shank3 PDZ; MicroCal VP-ITC, 25°C, 50 mM sodium phosphate, 200 mM NaCl, pH 7.4, single-binding-site model, [p1] = 406 μM/[Shank3 PDZ] = 40 μM, [p2] = 400 μM/30 μM, [p3] = 315 μM/34 μM, read-out: Kd (ITC)): 24 ± 2 µM; Kd (Shank1 PDZ [2]; rough estimation from peak intensities, 1:1 mixture, 150 mM ammonium acetate, 65 μM each, gas-phase measurement, read-out: dissociation constant estimated from native MS peak intensity): ~13 µM; Kd (Shank1 PDZ [3]; Biacore 3000, 25°C, HBS-EP pH 7.4, Shank1 PDZ coupled on CM5 chip, steady state affinity model, n = 1, read-out: dissociation constant (SPR, steady state affinity model)): 45 ± 6 µM
4 | I: Ac-CGSSGDPAWDETNL-OH / II: Ac-CGSSGDPAWDETNL-OH / III: Ac-CGSSGDPAWDETNL-OH (linker I:1-II:1-III:1 via X1) [p3] | – | – | – | 8.1 µM and 6.5 µM | 1.9 ± 0.1 µM | ~4.5 µM | not observed | 78900 M⁻¹ s⁻¹ | 0.353 s⁻¹ | difference in kon (Shank1 PDZ [3]; SPR, 1:1 Langmuir binding model, ligand p3 compared with ligand p2): about 1.2 fold

More lines, main results first:

Row | Kd [4] | Kd [5] | Kd [6] | Molecule | Kd (Shank1 PDZ [1]) | Kd (Shank3 PDZ) | Kd (Shank1 PDZ [2]) | complexes with higher stoichiometry such as 2:1 or 3:1 (Shank1 PDZ [2]) | kon (Shank1 PDZ [3]) | koff (Shank1 PDZ [3]) | also measured
5 | 24 µM | 5.9 µM | 1.9 µM | Shank3 PDZ 533-665 (protein) DTRHETREDRTKRLFRHYTVGSYDSLTSHSDYVIDDKVAILQKRDHEGFGFVLRGAKAETPIEEFTPTPAFPALQYLESVDVEGVAWRAGLRTGDFLIEVNGVNVVKVGHKQVVGLIRQGGNRLVMKVVSVTR | – | – | – | – | – | – | –
6 | 41 µM | 16.6 µM | 8.1 µM | Shank1 PDZ 653-765 (protein) SGSDYIIKEKTVLLQKKDSEGFGFVLRGAKAQTPIEEFTPTPAFPALQYLESVDEGGVAWRAGLRMGDFLIEVNGQNVVKVGHRQVVNMIRQGGNTLMVKVVMVTRHPDMDEA | – | – | – | – | – | – | Kd (dimeric peptide BM(PEG)3): 13.7 µM; Kd [7]: ~13 µM; Kd [8]: ~5.3 µM; Kd [9]: ~4.5 µM; Kd [10]: 17.1 µM; Kd [11]: 4.48 µM; Kd [12]: 45 µM; Kd [13]: 19 µM; Kd [14]: 6 µM; Kd [15]: 18 µM; Kd [16]: 6.5 µM
